Data as given in PubChem BioAssay AID743394 (Broad Institute, 2014).
The source made the active and inactive calls.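 The calls were made as follows: active = 40% activation versus positive control reached by fitted dose-response curve at or below highest valid tested dose; inconclusive = poor fit quality, or flat fit with activation between 30% and 70%; inactive = the rest.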

Assay: Xi-linked GFP reactivating small molecules – imaging, 68-5-11 mouse fibroblasts, cherry-pick, dose response (AID 743394);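 also: sensitizer 5-aza-dC present in the wells at 0.5 mM final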
Conditions: 68-5-11 mouse fibroblast XiGFP reporter, % GFP-positive imaging, 3 d, cells co-treated with 5-aza-dC sensitizer, scaled: neutral wells 0, ellipticine wells 100

| Compound | activation (at 19.5 µM (top of the series)) | activation (at 21 µM (top of the series)) |
| --- | --- | --- |
| COc1cc(/C=C2\SC(=S)N(N3CCOCC3)C2=O)cc(OC)c1OC | 0.067% (inactive) | – |
| CCCCCCCCN1C(=O)[C@H](CC(=O)N2CCSCC2)C[C@@]2(C(=O)OCC)CCCC=C12 | 0.117% (inactive) | – |
| CC(C)(C)C1CCNC(=O)CC1 (stereo not drawn) | 0.008% (inactive) | – |
| COc1ccc(S(=O)(=O)N(C)C[C@@H]2OCc3cn(nn3)CCCC(=O)N([C@@H](C)CO)C[C@@H]2C)cc1 | – | 0.05% (inactive) |
| C[C@@H]1CN([C@@H](C)CO)S(=O)(=O)c2ccc(C#CC3CC3)cc2O[C@H]1CN(C)Cc1ccc(F)cc1 | 0.063% (inactive) | – |
| C[C@@H]1COc2cccc(NCCO)c2S(=O)(=O)N1 | 0.028% (inactive) | – |
| Cn1c2ccccc2c2cnn(CC(=O)Nc3ccccc3Br)c(=O)c21 | 0.034% (inactive) | – |
| CN(C)C(=O)C[C@@H]1C=C[C@H](NS(=O)(=O)c2ccccc2)[C@@H](CO)O1 | 0.689% (inactive) | – |
| N#CC(C#N)=C1C=CC=CN1/C(=C\c1ccco1)C(=O)c1ccc(Br)cc1 | 8.49% (inactive) | – |
| Cc1cc(-c2nc(C)c(-c3nnc(SCC(=O)Nc4ccc(Cl)cc4)n3C)s2)no1 | 0.023% (inactive) | – |
| Cc1cc(=O)[nH]c(N/N=C/c2cc(C)n(CC(F)(F)F)c2C)n1 | 0.184% (inactive) | – |
| CCOC(=O)c1ccc(NC(=O)c2ccnn2C)cc1 | -0.044% (inactive) | – |
| COC(=O)C(C(C)C)N1CCc2c(C)nc3c(C#N)cnn3c21 (stereo not drawn) | 0.052% (inactive) | – |
| COc1ccc(CNC(=O)c2ccc(-c3cnn(C)c3)c3ccoc23)cc1OC | -0.037% (inactive) | – |
| Cc1ccc(S(=O)(=O)Nc2ccc3c(c2)C(=O)N([C@H](C)CO)C[C@@H](C)[C@@H](CN(C)Cc2ccc(Cl)c(Cl)c2)OCCCC[C@H](C)O3)cc1 | -0.031% (inactive) | – |
| Cc1ccc(N2C(=O)C3C4C=CC(CNC(=S)N5CCN(c6ccccc6)CC5)(O4)C3C2=O)cc1 (stereo not drawn) | -0.008% (inactive) | – |
| CC1CCCC(NC(=O)CSc2cccc[n+]2[O-])C1C (stereo not drawn) | 0.125% (inactive) | – |
| Cc1ccc(/C=C/C(=O)N2CCN(S(=O)(=O)/C=C/c3ccccc3)CC2)o1 | 0.382% (inactive) | – |
| CC(Sc1nnc(-c2ccncc2)n1C)C(=O)Nc1ccc(N2CCOCC2)cc1 (stereo not drawn) | -0.047% (inactive) | – |
| CC(=O)N/C(N)=N/c1nc(=O)c2ccccc2s1 | -0.044% (inactive) | – |
| CCNC(=O)C[C@@H]1CC[C@H]2[C@@H](COC[C@@H](O)CN2C(=O)C2CCCC2)O1 | -0.016% (inactive) | – |
| Cc1ccc(NC(=O)c2ncn(CCCNCCCN(C)C)n2)cc1C | 0.041% (inactive) | – |

| Compound | activation (at 19.5 µM (top of the series)) | activation (at 21 µM (top of the series)) |
| --- | --- | --- |
| COc1ccc(-c2noc(-c3cccs3)n2)cc1OC | 0.151% (inactive) | – |
| CC(=O)OCCNc1cc(Sc2nc3ccccc3[nH]2)c2nonc2c1[N+](=O)[O-] | -0.034% (inactive) | – |
| CCOC(=O)Cc1csc(NC(=O)Nc2ccc(F)cc2)n1 | 0.472% (inactive) | – |
| Cc1ccc2c(COC(=O)C34CC5CC(CC(C5)C3)C4)cc(=O)oc2c1 | -0.07% (inactive) | – |
| CCN1CCN(c2cc(C)c3cc(NC(=O)c4cccs4)ccc3n2)CC1 | -0.032% (inactive) | – |
| CN(C)CCCNC(=O)/C(=C\c1ccc(-c2ccc(Br)cc2)o1)NC(=O)c1ccccc1 | -0.053% (inactive) | – |
| Cc1c(CN2CCCC(C(=O)c3cccc(OC(C)C)c3)C2)c(=O)n(-c2ccccc2)n1C (stereo not drawn) | -0.016% (inactive) | – |
| CC(=O)N[C@@H](CC(=O)O)C(=O)O | -0.053% (inactive) | – |
| CCN(CC)S(=O)(=O)c1ccc(Cl)c(NC(=O)COC(=O)c2c(C)noc2C)c1 | 0.03% (inactive) | – |
| Cc1cc(=O)[nH]c(N/N=C/c2cc(C)n(-c3ccccc3)c2C)n1 | -0.016% (inactive) | – |
| Cc1ccccc1NC(=O)c1cn2c(nc3ccccc32)c(C#N)c1C | 3.72% (inactive) | – |
| CCOc1ccccc1N1C(=O)CC(Sc2nccc(C)n2)C1=O (stereo not drawn) | -0.095% (inactive) | – |
| Cc1ccccc1-c1ccc(C2[C@@H]3CN(Cc4cocn4)C[C@H]2N3)cc1 (stereo partly drawn) | -0.031% (inactive) | – |
| COc1ccc(OC)c(/C=C/c2ccc3cccc(O)c3n2)c1 | -0.024% (inactive) | – |
| COc1ccc(CCn2c(C)cc(C(=O)CN3C(=O)C(=O)N(Cc4ccco4)C3=O)c2C)cc1 | 0.899% (inactive) | – |
| Cc1[nH]c2ccccc2c1/C=N/Nc1nc2ccccc2[nH]1 | -0.075% (inactive) | – |
| C/C(CC(=O)Nc1ccc(C)c(Cl)c1)=N\NC(=O)Cc1ccccc1 | -0.06% (inactive) | – |
| CN(C)C(=O)CN1CCN(Cc2nc(CC3CC3)no2)CC1 | -0.032% (inactive) | – |
| COc1ccc(OC)c(NC(=O)Nc2ccc3[nH]ccc3c2)c1 | -0.035% (inactive) | – |
| Cc1n[nH]c(=S)n1/N=C/c1ccc(-c2ccc(Cl)cc2)o1 | 1.87% (inactive) | – |
| CCn1c(Cl)c(C=O)s/c1=N\S(=O)(=O)c1ccccc1 | 1.44% (inactive) | – |
| CCOC(=O)c1ccccc1NC(=O)COC(=O)C1CCN(S(=O)(=O)c2ccccc2C(=O)OC)CC1 | 1.06% (inactive) | – |

| Compound | activation (at 19.5 µM (top of the series)) | activation (at 21 µM (top of the series)) |
| --- | --- | --- |
| O=c1[nH]c(=O)n([C@H]2C[C@H](O)[C@@H](CO)O2)cc1C(F)(F)F | -0.032% (inactive) | – |
| Cc1ccc(-c2[nH]c(=S)[nH]c(=O)c2C#N)cc1 | -0.003% (inactive) | – |
| COc1cc(NC(C)CCc2ccccc2)cc(OC)c1OC (stereo not drawn) | -0.035% (inactive) | – |
| CCOC(=O)Cc1c(C)[nH]n(-c2ccccc2)c1=O | 0.085% (inactive) | – |
| CCC(C(=O)Nc1cc(OC)c(NC(=O)c2ccccc2)cc1OC)c1ccccc1 (stereo not drawn) | -0.037% (inactive) | – |
| O=c1c2cc(-c3ccccc3)sc2nc2n1N=C(c1ccccc1)CS2 | 1.54% (inactive) | – |
| ClC1CCCCC1n1nnc2ccccc21 (stereo not drawn) | 0.006% (inactive) | – |
| CC(C)c1ccc(CN2CCN(C(=O)CSc3nnnn3C3CC3)CC2)cc1 | 0.2% (inactive) | – |
| O=CNc1ccc2c(c1)Cc1cc([N+](=O)[O-])ccc1-2 | 0.191% (inactive) | – |
| CCOc1ccc(N2C(=O)CC(Sc3nc(O)c(CC)c(=O)[nH]3)C2=O)cc1 (stereo not drawn) | 0.001% (inactive) | – |
| CC(=O)C1=NN(c2ccc(Cl)cc2)C(c2ccc3c(c2)OCO3)N(C(C)=O)N1C (stereo not drawn) | -0.032% (inactive) | – |
| CCOc1ccc(NC(=S)NC(C)c2cccs2)cc1 (stereo not drawn) | 0.358% (inactive) | – |
| CN(C1CCCCC1)S(=O)(=O)c1ccc(C(=O)N2CCN(c3nc4ccccc4s3)CC2)cc1 | 0.125% (inactive) | – |
| O=[N+]([O-])/C=C/c1ccc2c(ccn2Cc2ccccc2)c1 | -0.06% (inactive) | – |
| C[C@H]1CCCCO[C@@H](CN(C)C(=O)Nc2ccc(C(F)(F)F)cc2)[C@@H](C)CN([C@@H](C)CO)C(=O)c2cc(NC(=O)CCC(F)(F)F)ccc2O1 | 0.048% (inactive) | – |
| COc1ccccc1N(C)c1cc2c(c3c1ccn3C)C1CCC2C1 (stereo not drawn) | 0.146% (inactive) | – |
| CO[C@H]1CN(C)C(=O)c2ccc(NC(=O)Cc3ccccc3)cc2OC[C@@H](C)N(C)C[C@H]1C | -0.035% (inactive) | – |
| O=c1[nH]cnc2c1ncn2[C@H]1CC[C@@H](CO)O1 | -0.002% (inactive) | – |
| Cc1ccc(C(=O)Cn2cncn2)cc1 | -0.053% (inactive) | – |
| Cc1ccsc1C1Nc2ccccc2-c2nc3ccccc3n21 (stereo not drawn) | -0.047% (inactive) | – |
| Cc1ccnc(NS(=O)(=O)c2ccc3c(c2)CCO3)c1 | 0.025% (inactive) | – |
| O=C(CCl)N=c1sccn1Cc1ccc(Cl)cc1Cl | 0.591% (inactive) | – |

| Compound | activation (at 19.5 µM (top of the series)) | activation (at 21 µM (top of the series)) |
| --- | --- | --- |
| CCCN(C(=O)c1ccc(-n2cncn2)c([N+](=O)[O-])c1)C1CCS(=O)(=O)C1 (stereo not drawn) | -0.007% (inactive) | – |
| Cc1occc1C(=O)N/N=C/C(Br)=C\c1ccccc1 | -0.024% (inactive) | – |
| Cc1cc(NC(=O)c2ccccc2)n(-c2nc3ccccc3[nH]2)n1 | -0.016% (inactive) | – |
| Cc1ccc(S(=O)(=O)N(C)c2ccc(C)c([N+](=O)[O-])c2)cc1 | 0.488% (inactive) | – |
| O=C(Nc1c(Cl)cccc1Cl)Oc1cccc2cccnc12 | -0.037% (inactive) | – |
| Cc1[nH]c2ccc(Br)cc2c(=O)c1CN1CCCCCC1 | -0.013% (inactive) | – |
| COc1ccc(S(=O)(=O)Nc2ccc3c(c2)C(=O)N([C@@H](C)CO)C[C@H](C)[C@H](CN(C)C(=O)CCCN(C)C)OCCCC[C@H](C)O3)cc1 | 0.053% (inactive) | – |
| COc1ccc(-c2ccc3[nH]c4c(c3c2)CCN2C(=O)[C@@H]([C@H](C)O)[C@@H](N(C)C(=O)Nc3ccc(F)cc3)C[C@@H]42)cc1 | 1.96% (inactive) | – |
| CCOC(=O)c1sc(Nc2ccc(Br)cc2)nc1C | 0.082% (inactive) | – |
| COc1cc(CN2CCC(C(=O)NCC(C)(C)CN(C)C)CC2)ccc1OCc1ccccc1 | -0.029% (inactive) | – |
| COc1cccc(CNC(=O)CNC(=S)N(Cc2ccccc2)Cc2ccccc2F)c1 | -0.015% (inactive) | – |
| Nc1cc2c3c(cccc3c1)C(=O)N(CCN1CCCC1)C2=O | -0.037% (inactive) | – |
| CN(CC(=O)Nc1ccc(Cl)c(Cl)c1)CC(=O)Nc1ccc2c(c1)OCO2 | -0.047% (inactive) | – |
| COc1ccc(NC(=O)N(C)[C@H]2C[C@H]3c4[nH]c5ccc(-c6ccc(OC)cc6)cc5c4CCN3C(=O)[C@H]2[C@H](C)O)cc1 | 0.523% (inactive) | – |
| CC(C)CC(=O)Nc1c2c(nn1-c1ccc(F)cc1)CSC2 | 0.542% (inactive) | – |
| COc1ccc2nc(SCC(=O)Nc3ccccc3OC)[nH]c2c1 | -0.024% (inactive) | – |
| C[C@H](NC(=O)C[C@@H]1CC[C@H](NC(=O)Cc2ccccn2)[C@@H](CO)O1)c1ccccc1 | 0.019% (inactive) | – |
| CCOC(=O)Nc1cc2c(c(N)n1)N=C(c1ccccc1)CN2 | -0.053% (inactive) | – |
| Cc1nnc(-c2ccc(N3CCCCCC3)c([N+](=O)[O-])c2)o1 | -0.007% (inactive) | – |
| CN1c2ccc(-c3ccc(C#N)cc3)cc2[C@@H]2[C@@H](CCN2C(=O)NC2CCCCC2)[C@H]1CO | 0.002% (inactive) | – |
| COc1ccc(CN(C)C[C@H]2OCCCC[C@H](C)Oc3ccc(NC(=O)Nc4ccc(F)cc4)cc3C(=O)N([C@H](C)CO)C[C@H]2C)cc1 | 0.981% (inactive) | – |
| Oc1cccc(/C=N/NC(=S)NCCN2CCOCC2)c1O | -0.016% (inactive) | – |
